Reference: US20230157282A1, “Synergistic Preservative/Personal Care Composition With A Polyglycerol Ester” (ARCH UK BIOCIDES LTD, priority 2020, published 2023)

System: Pseudomonas aeruginosa ATCC 15442
Assay: Suspension test: log reduction of Pseudomonas aeruginosa after a specified contact time
Assay type: cell-based
Protocol: The target organism Pseudomonas aeruginosa ATCC 15442 was taken from freezer stocks and grown for 24 hours on tryptone soy agar (TSA) at 37° C. A second subculture was produced from the first and grown with the same conditions. A test suspension was then created by adding loopfuls of organism to tryptone buffered saline and adjusting the cell concentration to 1×10^8 and 5×10^8 CFU/ml using an internally established calibration curve spectrophotometer at a wavelength of 600 nm. To establish the precise CFU/ml a 1 ml aliquot was then taken from the test suspension and serially diluted down to 10^−6 and 10^−7, 1 ml of each dilution was then plated in duplicate using the pour plate method on to TSA. The plates were then incubated for 24 hours at 37° C. and enumerated.
For each Active Ingredient tested a series of 3 samples were prepared in sterile distilled water;
Test sample 1—Active Ingredient alone (to measure basic efficacy of the Active Ingredient)
Test sample 2—Active Ingredient in combination with polyglyceryl-10 caprylate/caprate (to measure the efficacy of the combination of active ingredient and polyglycerol ester)
Control—A control sample of polyglyceryl-10 caprylate/caprate was prepared in deionized water to measure the efficacy of polyglycerol ester alone.
Each test sample was prepared at a concentration 10% higher than that of the target concentration to account for the dilution effect from the addition of the test organism suspension during the test procedure.
A test mixture was prepared by adding a 0.1 ml aliquot of test organism suspension to a tube followed by 0.9 ml of test sample (prepared as above). The combination was then mixed and a timer started immediately.
Upon achieving the specified contact time the test mixture was deactivated by adding a 0.1 ml aliquot of the test mixture to 0.9 ml of neutralizing broth and the whole solution mixed. The solution was left for 5 minutes to ensure the action of the active ingredient was effectively neutralized.
To quantify the surviving number of organisms in the neutralized test mixture, 4×0.025 ml aliquots were taken and spot plated onto the surface of dried TSA. The plates were then incubated for 24 hours at 37° C.
For spot plating, colonies from the incubated plates were enumerated using the lower count limit of <1 and the upper count limit of >150. […] For the upper limit, if 156 colonies were counted on a plate, >150 would be recorded and 150 would be used for the calculation.
[formula] • N0 is the number of cells per ml in test mixture at the beginning of contact time. It is one-tenth of the weighted mean of N due to the tenfold dilution by the addition of the test product.
Enumeration and Calculation of T (Test Mixture) • First, the mean average of cfu per 0.025 ml spots was established using the below calculation;
Log Reduction Calculations (N0− T) • Before calculating the log reduction both N0 and T were converted into a logarithm base 10 value. For example;
To calculate the final log reduction the following calculation was used;
The test procedure outlined above was used to test for synergy between polyglyceryl-10 caprylate/caprate (PG10CC) and the various active ingredients listed in Table 1. Varying concentrations were prepared and were tested at the times listed in Table 1 for the presence of Pseudomonas aeruginosa.

Zinc pyrithione
Log Reduction (Zinc pyrithione 400 ppm, contact time 7 days): 2.88

O=C(O)c1ccccc1 [Benzoic acid]
Log Reduction (Benzoic acid 2000 ppm, contact time 2 hours): <2.85

CC(O)C(=O)O (stereo not drawn) [Lactic acid]
Log Reduction (Lactic acid 2000 ppm, contact time 3 hours): 4.03

[H]/N=C(\N/C(=N/[H])NCCCCCCNC(=N)NC(=N)Nc1ccc(Cl)cc1)Nc1ccc(Cl)cc1 [chlorohexidine]
Log Reduction (chlorohexidine 64 ppm, contact time 5 minutes): 3.44

O=C(O)CO [Glycolic acid]
Log Reduction (Glycolic acid 1000 ppm, contact time 30 minutes): 2.85

O=c1[nH]sc2ccccc12
Log Reduction (Benzisothiazoline 100 ppm, contact time 48 hours): 3.84
